Assay results taken from PMC7217150, “Synthesis, Modification, and Biological Evaluation of a Library of Novel Water‐Soluble Thiopyridone‐Based Organometallic Complexes and Their Unexpected (Biological) Behavior” (Chemistry (Weinheim an Der Bergstrasse, Germany), 2020).
Where two headings read alike, the source gives them in different places.

Assays:
[1] = pH 7.2
Experimental: Stock solutions containing the desired complex in DMSO (5 mM) were diluted with phosphate buffer (pH 7.2) to a final concentration of […] compound in 1 % DMSO/20 mM buffer and directly analyzed by four different isocratic UHPLC runs (Δ=5 %). The lipophilicity parameters logkw and lipophilicity indices φ0 were calculated according to literature.7, 37

A549 [2] = assay: MTT cytotoxicity assay, monolayer culture; assay type: cell-based, human; conditions: exposure time 96 h, means ± SDs
CH1/PA‐1 [3] = assay: MTT cytotoxicity assay, monolayer culture; assay type: cell-based, human; conditions: CH1/PA‐1, MTT assay, exposure time 96 h, means ± SDs
SW480 [4] = assay: MTT cytotoxicity assay, monolayer culture; assay type: cell-based, human
HCT‐116 = HCT‐116 multicellular spheroids, 96 h drug exposure
Experimental: (§1) A549, CH1/PA‐1 and SW480 cells were grown in MEM supplemented with 10 % fetal calf serum (FCS; from Biowest), 1 mM sodium pyruvate, 4 mM L‐glutamine and 1 % v/v nonessential amino acids (from 100×solution) and L‐glutamine. HCT‐116 cells were maintained in McCoy's 5a medium supplemented with 10 % FCS and L‐glutamine. Adherent monolayer cultures were grown in 75 cm^2 flasks. For spheroid culture, A549, CH1/PA‐1 and HCT‐116 cells were harvested from culture flasks by trypsinization, resuspended in their respective supplemented medium and seeded in ultra‐low attachment round‐bottom 96‐well plates (Corning Costar) at a density of 500 viable cells per well. Plates were incubated for 96 h to allow spheroid formation prior to use for the tests. All cultures were incubated in a humidified incubator at 37 °C with 5 % CO2.
(§2) Cytotoxicity in multicellular spheroids was determined by the fluorimetric resazurin assay. […] After incubation for 96 h, 20 μL of a 440 μM resazurin sodium salt solution in PBS were added to each well, and the plates were incubated for further 16 h. Fluorescence was measured with a Synergy HT reader (BioTek) with an excitation wavelength of 530 nm and emission wavelength of 590 nm. For both assays, at least three independent experiments (or two in case of poor activity) were performed, each with triplicates per concentration level, and the 50 % inhibitory concentrations (IC50) relative to untreated controls were interpolated from concentration‐effect curves.

A549 [5] = conditions: A549 multicellular spheroids, 96 h drug exposure
Experimental: as §1, §2

CH1/PA‐1 [6] = conditions: CH1/PA‐1 multicellular spheroids, 96 h drug exposure
Experimental: as §1, §2

[7] = tested on: human cancer cell lines CH1/PA‐1, SW480, A549; conditions: tested cancer cell lines
Experimental: Cytotoxicity of the compounds in monolayer cultures was determined by the colorimetric MTT assay (MTT=3‐(4,5‐dimethyl‐2‐thiazolyl)‐2,5‐diphenyl‐2H‐tetrazolium bromide). 1×10^3 CH1/PA‐1, 2×10^3 SW480 and 3×10^3 A549 cells were seeded in 100 μL supplemented MEM per well into 96‐well flat‐bottom microculture plates. […] After 96 h, the drug‐containing medium was replaced with 100 μL of RPMI 1640/MTT mixture [6 parts of RPMI 1640 medium (supplemented with 10 % heat‐inactivated fetal bovine serum and 4 mM L‐glutamine), 1 part of MTT solution in phosphate‐buffered saline (5 mg mL^−1)]. After incubation for 4 h, the mixture was replaced with 150 μL DMSO per well to dissolve the formazan product formed by viable cells. Optical densities at 550 nm (and at a reference wavelength of 690 nm) were measured with a microplate reader (ELx808, Bio‐Tek).

CH1/PA‐1 [8] = assay: Cell cycle distribution, flow cytometry with propidium iodide; assay type: cell-based, human; conditions: for Cell cycle distribution G1, % / Cell cycle distribution G2/M, % / Cell cycle distribution S, %: 24 h, mean ± SD; for Relative change in cell cycle distribution G1, % / Relative change in cell cycle distribution G2/M, % / Relative change in cell cycle distribution S, %: difference to untreated control; for decrease in G1 phase: CH1/PA‐1 cells
Procedure, shortened: (§3)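 CH1/PA-1 and SW480 cells were allowed to attach for 24 h, then exposed continuously to compounds for 24 h at 37 °C. Nuclei were stained overnight at 4 °C with propidium iodide (50 μg mL^−1) in Triton/citrate buffer. 5×10^3 cells were analysed by flow cytometry, with G1/S/G2/M fractions fitted by the Watson Pragmatic model.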

SW480 [9] = assay: as above; assay type: cell-based, human; conditions: for Cell cycle distribution G1, % / Cell cycle distribution G2/M, % / Cell cycle distribution S, %: 24 h, mean ± SD; for Relative change in cell cycle distribution G1, % / Relative change in cell cycle distribution G2/M, % / Relative change in cell cycle distribution S, %: difference to untreated control
Procedure, shortened: as §3

SW480 cells = conditions: for Cellular accumulation: ICP‐MS, 2 h exposure, 50 μM
[10] = SW480, MTT assay, exposure time 96 h, means ± SDs

Cc1c([O-])c(=S)ccn1Cc1ccccc1.Cc1ccc(C(C)C)cc1.[Cl-].[Ru+2] [Compound 3 c, Chlorido[1‐benzyl‐2‐methyl‐3‐(oxo‐κO)‐pyridine‐4(1H)‐thionato‐κS](η^6‐p‐cymene)ruthenium(II)]
φ0 (chromatographic lipophilicity index) [1]: 6.04 | IC50 (A549 [2]): 1.3 ± 0.1 µM | IC50 (CH1/PA‐1 [3]): 1.04 ± 0.03 µM | IC50 (SW480 [4]; [10]): 3.1 ± 0.2 µM | IC50 (SW480 [4]; SW480, as listed in Table 3): 3.06 ± 0.2 µM | IC50 (HCT‐116): 211 ± 28 µM | IC50 (A549 [5]): 287 ± 3 µM | IC50 (CH1/PA‐1 [6]): 242 ± 11 µM | IC50 values, in words [7]: low micromolar range | Cell cycle distribution G1, % (CH1/PA‐1 [8]; CH1/PA-1, 2.5 µM): 30 ± 1% | Cell cycle distribution G2/M, % (CH1/PA‐1 [8]; CH1/PA-1, 2.5 µM): 23 ± 6% | Cell cycle distribution S, % (CH1/PA‐1 [8]; CH1/PA-1, 2.5 µM): 47 ± 8% | Relative change in cell cycle distribution G1, % (CH1/PA‐1 [8]; CH1/PA-1, 2.5 µM): -10% | Relative change in cell cycle distribution G2/M, % (CH1/PA‐1 [8]; CH1/PA-1, 2.5 µM): -1% | Relative change in cell cycle distribution S, % (CH1/PA‐1 [8]; CH1/PA-1, 2.5 µM): 11% | Cell cycle distribution G1, % (CH1/PA‐1 [8]; CH1/PA-1, 5 µM): 27 ± 3% | Cell cycle distribution G2/M, % (CH1/PA‐1 [8]; CH1/PA-1, 5 µM): 30 ± 3% | Cell cycle distribution S, % (CH1/PA‐1 [8]; CH1/PA-1, 5 µM): 43 ± 3% | Relative change in cell cycle distribution G1, % (CH1/PA‐1 [8]; CH1/PA-1, 5 µM): -13% | Relative change in cell cycle distribution G2/M, % (CH1/PA‐1 [8]; CH1/PA-1, 5 µM): 6% | Relative change in cell cycle distribution S, % (CH1/PA‐1 [8]; CH1/PA-1, 5 µM): 7% | Cell cycle distribution G1, % (CH1/PA‐1 [8]; CH1/PA-1, 10 µM): 24 ± 6% | Cell cycle distribution G2/M, % (CH1/PA‐1 [8]; CH1/PA-1, 10 µM): 30 ± 7% | Cell cycle distribution S, % (CH1/PA‐1 [8]; CH1/PA-1, 10 µM): 47 ± 4% | Relative change in cell cycle distribution G1, % (CH1/PA‐1 [8]; CH1/PA-1, 10 µM): -16% | Relative change in cell cycle distribution G2/M, % (CH1/PA‐1 [8]; CH1/PA-1, 10 µM): 6% | Relative change in cell cycle distribution S, % (CH1/PA‐1 [8]; CH1/PA-1, 10 µM): 11% | decrease in G1 phase (CH1/PA‐1 [8]; 2.5 μM): 10% | decrease in G1 phase (CH1/PA‐1 [8]; 10 μM): about 16% | Cell cycle distribution G1, % (SW480 [9]; SW480, 2.5 µM): 45 ± 3% | Cell cycle distribution G2/M, % (SW480 [9]; SW480, 2.5 µM): 17 ± 4% | Cell cycle distribution S, % (SW480 [9]; SW480, 2.5 µM): 38 ± 6% | Relative change in cell cycle distribution G1, % (SW480 [9]; SW480, 2.5 µM): -3% | Relative change in cell cycle distribution G2/M, % (SW480 [9]; SW480, 2.5 µM): -2% | Relative change in cell cycle distribution S, % (SW480 [9]; SW480, 2.5 µM): 5% | Cell cycle distribution G1, % (SW480 [9]; SW480, 5 µM): 44 ± 2% | Cell cycle distribution G2/M, % (SW480 [9]; SW480, 5 µM): 20 ± 3% | Cell cycle distribution S, % (SW480 [9]; SW480, 5 µM): 36 ± 0% | Relative change in cell cycle distribution G1, % (SW480 [9]; SW480, 5 µM): -4% | Relative change in cell cycle distribution G2/M, % (SW480 [9]; SW480, 5 µM): 1% | Relative change in cell cycle distribution S, % (SW480 [9]; SW480, 5 µM): 3% | Cell cycle distribution G1, % (SW480 [9]; SW480, 10 µM): 48 ± 7% | Cell cycle distribution G2/M, % (SW480 [9]; SW480, 10 µM): 21 ± 4% | Cell cycle distribution S, % (SW480 [9]; SW480, 10 µM): 32 ± 7% | Relative change in cell cycle distribution G1, % (SW480 [9]; SW480, 10 µM): 0% | Relative change in cell cycle distribution G2/M, % (SW480 [9]; SW480, 10 µM): 2% | Relative change in cell cycle distribution S, % (SW480 [9]; SW480, 10 µM): -1% | decrease in G1 phase (SW480 [9]; SW480 cells, at applicable concentrations): < 9% | intracellular accumulation relative to 3 a, in words (SW480 cells): seven times as high | Cellular accumulation (SW480 cells): 147±54 fg/cell

CC1=C2[O][Ir+]([Cl])[S]=C2C=CN1C.Cc1c(C)c(C)[c-](C)c1C [Compound 6 a, Chlorido[1,2‐dimethyl‐3‐oxo‐κO‐pyridine‐4(1H)‐thionato‐κS](η^5‐1,2,3,4,5‐pentamethylcyclopentadienyl)iridium(III)]
φ0 (chromatographic lipophilicity index) [1]: 5.75 | IC50 (A549 [2]): 63 ± 6 µM | IC50 (CH1/PA‐1 [3]): 7 ± 1.6 µM | IC50 (SW480 [4]; [10]): 4.2 ± 0.2 µM | IC50 (SW480 [4]; SW480, as listed in Table 3): 4.18 ± 0.19 µM | IC50 (HCT‐116): 138 ± 6 µM | IC50 (A549 [5]): 270 ± 17 µM | IC50 (CH1/PA‐1 [6]): 131 ± 14 µM | Cell cycle distribution G1, % (CH1/PA‐1 [8]; CH1/PA-1, 10 µM): 29 ± 3% | Cell cycle distribution G2/M, % (CH1/PA‐1 [8]; CH1/PA-1, 10 µM): 26 ± 4% | Cell cycle distribution S, % (CH1/PA‐1 [8]; CH1/PA-1, 10 µM): 45 ± 8% | Relative change in cell cycle distribution G1, % (CH1/PA‐1 [8]; CH1/PA-1, 10 µM): -11% | Relative change in cell cycle distribution G2/M, % (CH1/PA‐1 [8]; CH1/PA-1, 10 µM): 2% | Relative change in cell cycle distribution S, % (CH1/PA‐1 [8]; CH1/PA-1, 10 µM): 9% | Cell cycle distribution G1, % (CH1/PA‐1 [8]; CH1/PA-1, 20 µM): 33 ± 4% | Cell cycle distribution G2/M, % (CH1/PA‐1 [8]; CH1/PA-1, 20 µM): 26 ± 9% | Cell cycle distribution S, % (CH1/PA‐1 [8]; CH1/PA-1, 20 µM): 41 ± 10% | Relative change in cell cycle distribution G1, % (CH1/PA‐1 [8]; CH1/PA-1, 20 µM): -7% | Relative change in cell cycle distribution G2/M, % (CH1/PA‐1 [8]; CH1/PA-1, 20 µM): 2% | Relative change in cell cycle distribution S, % (CH1/PA‐1 [8]; CH1/PA-1, 20 µM): 5% | Cell cycle distribution G1, % (CH1/PA‐1 [8]; CH1/PA-1, 40 µM): 28 ± 6% | Cell cycle distribution G2/M, % (CH1/PA‐1 [8]; CH1/PA-1, 40 µM): 26 ± 4% | Cell cycle distribution S, % (CH1/PA‐1 [8]; CH1/PA-1, 40 µM): 45 ± 5% | Relative change in cell cycle distribution G1, % (CH1/PA‐1 [8]; CH1/PA-1, 40 µM): -12% | Relative change in cell cycle distribution G2/M, % (CH1/PA‐1 [8]; CH1/PA-1, 40 µM): 2% | Relative change in cell cycle distribution S, % (CH1/PA‐1 [8]; CH1/PA-1, 40 µM): 9% | Cell cycle distribution G1, % (SW480 [9]; SW480, 2.5 µM): 48 ± 2% | Cell cycle distribution G2/M, % (SW480 [9]; SW480, 2.5 µM): 19 ± 3% | Cell cycle distribution S, % (SW480 [9]; SW480, 2.5 µM): 32 ± 1% | Relative change in cell cycle distribution G1, % (SW480 [9]; SW480, 2.5 µM): 0% | Relative change in cell cycle distribution G2/M, % (SW480 [9]; SW480, 2.5 µM): 0% | Relative change in cell cycle distribution S, % (SW480 [9]; SW480, 2.5 µM): -1% | Cell cycle distribution G1, % (SW480 [9]; SW480, 5 µM): 41 ± 4% | Cell cycle distribution G2/M, % (SW480 [9]; SW480, 5 µM): 26 ± 5% | Cell cycle distribution S, % (SW480 [9]; SW480, 5 µM): 33 ± 9% | Relative change in cell cycle distribution G1, % (SW480 [9]; SW480, 5 µM): -7% | Relative change in cell cycle distribution G2/M, % (SW480 [9]; SW480, 5 µM): 7% | Relative change in cell cycle distribution S, % (SW480 [9]; SW480, 5 µM): 0% | Cell cycle distribution G1, % (SW480 [9]; SW480, 10 µM): 42 ± 4% | Cell cycle distribution G2/M, % (SW480 [9]; SW480, 10 µM): 17 ± 3% | Cell cycle distribution S, % (SW480 [9]; SW480, 10 µM): 42 ± 3% | Relative change in cell cycle distribution G1, % (SW480 [9]; SW480, 10 µM): -6% | Relative change in cell cycle distribution G2/M, % (SW480 [9]; SW480, 10 µM): -2% | Relative change in cell cycle distribution S, % (SW480 [9]; SW480, 10 µM): 9% | cellular concentration relative to 3 a (SW480 cells): about 47 times | Cellular accumulation (SW480 cells): 986±152 fg/cell
